In ChEMBL document CHEMBL3872281, “A one-pot laccase-catalysed synthesis of coumestan derivatives and their anticancer activity” (Bioorg Med Chem, 2017):

What was measured:
[1] = Cytotoxicity against human MCF7 cells assessed as cell growth inhibition after 48 hrs by SRB assay; format: functional; settings: MCF7, 48 h; for CC50: read-out: LC50 (the source's name)
[2] = Cytotoxicity against human TK10 cells assessed as cell growth inhibition after 48 hrs by SRB assay; format: functional; settings: TK-10, 48 h; for CC50: read-out: LC50 (the source's name)
[3] = Cytotoxicity against human UACC62 cells assessed as cell growth inhibition after 48 hrs by SRB assay; format: functional; settings: UACC-62, 48 h
[4] = target: T1, Arachidonate 5-lipoxygenase (Sus scrofa) (UniProt K7GQZ4); assay: Potency index, ratio of coumestrol IC50 to compound IC50 for 5-lipoxygenase in pig leukocytes; format: cell-based
T1 sequence (whole entry): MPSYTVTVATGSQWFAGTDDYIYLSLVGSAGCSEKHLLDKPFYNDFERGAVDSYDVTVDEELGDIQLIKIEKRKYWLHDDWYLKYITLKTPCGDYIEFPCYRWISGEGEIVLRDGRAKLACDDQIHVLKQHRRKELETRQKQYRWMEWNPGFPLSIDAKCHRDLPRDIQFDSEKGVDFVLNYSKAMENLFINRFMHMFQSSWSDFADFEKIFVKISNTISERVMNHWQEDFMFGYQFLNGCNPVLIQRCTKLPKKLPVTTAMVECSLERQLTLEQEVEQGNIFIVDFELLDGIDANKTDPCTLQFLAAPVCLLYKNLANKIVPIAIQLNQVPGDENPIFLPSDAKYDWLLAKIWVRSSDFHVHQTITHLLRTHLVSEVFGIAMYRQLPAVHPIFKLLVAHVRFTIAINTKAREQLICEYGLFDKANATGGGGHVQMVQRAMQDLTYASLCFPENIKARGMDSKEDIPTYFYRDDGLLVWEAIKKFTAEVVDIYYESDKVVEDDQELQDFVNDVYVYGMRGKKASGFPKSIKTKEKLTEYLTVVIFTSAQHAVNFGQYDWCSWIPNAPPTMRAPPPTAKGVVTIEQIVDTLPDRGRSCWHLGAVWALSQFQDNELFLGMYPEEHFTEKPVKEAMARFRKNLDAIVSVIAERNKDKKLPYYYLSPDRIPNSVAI

[5] = target: T2, Arachidonate 5-lipoxygenase (Sus scrofa, UniProt K7GQZ4); assay: Inhibition of 5-lipoxygenase in pig leukocytes using arachidonic acid as substrate; format: cell-based
T2 sequence (K7GQZ4 whole entry): T1 sequence (whole entry)

[6] = test system: UACC-62; assay: Potency index, ratio of etoposide TGI to compound TGI for human UACC62 cells; format: functional

Compound	GI50 [1]	TGI [1]	CC50 [1]	GI50 [2]	TGI [2]	CC50 [2]	GI50 [3]	LC50 (concentration giving 50% net cell kill) [3]	TGI [3]	Ratio IC50 [4]	IC50 [5]	Ratio [6]
COc1c(O)c(O)cc2c1oc1c3cc(C)ccc3oc(=O)c21	65.8 µM	> 100 µM	> 100 µM	88.6 µM	> 100 µM	> 100 µM	49.9 µM	> 100 µM	> 100 µM			
Cc1ccc2oc(=O)c3c4cc(O)c(O)cc4oc3c2c1	54.7 µM	> 100 µM	> 100 µM	52 µM	> 100 µM	> 100 µM	11.2 µM	90.7 µM	50.9 µM			
Cc1c(O)c(O)cc2c1oc1c3cc(Cl)ccc3oc(=O)c21	63.1 µM	> 100 µM	> 100 µM	58.1 µM	> 100 µM	> 100 µM	39.7 µM	> 100 µM	73.6 µM			
Oc1ccccc1O [CATECHOL]	52.4 µM	> 100 µM	> 100 µM	68 µM	> 100 µM	> 100 µM	45 µM		> 100 µM			
COc1cc(O)c2c(c1)oc(=O)c1c3cc(O)c(O)cc3oc21 [WEDELOLACTONE]										40	2.5 µM	
Oc1cccc(F)c1O	57.6 µM	> 100 µM	> 100 µM	84.7 µM	> 100 µM	> 100 µM	35.2 µM		78.4 µM			
COc1c(O)c(O)cc2c1oc1c3cc(C)c(C)cc3oc(=O)c21	29.5 µM	95.4 µM	> 100 µM	26.8 µM	66.4 µM	> 100 µM	18.1 µM	75.3 µM	46.7 µM			
COc1cc([C@@H]2c3cc4c(cc3[C@@H](O[C@@H]3O[C@@H]5CO[C@@H](C)O[C@H]5[C@H](O)[C@H]3O)[C@H]3COC(=O)[C@H]23)OCO4)cc(OC)c1O [ETOPOSIDE]	0.56 µM	> 100 µM	> 100 µM			> 100 µM	0.89 µM					
Cc1c(O)c(O)cc2c1oc1c3ccccc3oc(=O)c21	54.9 µM	> 100 µM	> 100 µM	> 100 µM	> 100 µM	> 100 µM	55.6 µM	> 100 µM	> 100 µM			
Cc1cccc(O)c1O	27.3 µM	64.3 µM	> 100 µM	38.1 µM	75.8 µM	> 100 µM	15.2 µM		46.2 µM			
O=c1oc2ccccc2c2oc3c(F)c(O)c(O)cc3c12	53.1 µM	> 100 µM	> 100 µM	> 100 µM	> 100 µM	> 100 µM	67.6 µM	> 100 µM	> 100 µM			
COc1c(O)c(O)cc2c1oc1c3ccccc3oc(=O)c21	87.3 µM	> 100 µM	> 100 µM	> 100 µM	> 100 µM	> 100 µM	67.6 µM	> 100 µM	> 100 µM			
Cc1cc2oc(=O)c3c4cc(O)c(O)c(C)c4oc3c2cc1C	87.3 µM	> 100 µM	> 100 µM	> 100 µM	> 100 µM	> 100 µM	67.6 µM	> 100 µM	> 100 µM			
Cc1ccc2oc(=O)cc(O)c2c1	84.4 µM	> 100 µM	> 100 µM	> 100 µM	> 100 µM	> 100 µM	84.7 µM		> 100 µM			
O=c1cc(O)c2cc(Cl)ccc2o1	83.3 µM	> 100 µM	> 100 µM	> 100 µM	> 100 µM	> 100 µM	88.7 µM	> 100 µM	> 100 µM			
O=c1oc2ccc(Cl)cc2c2oc3c(F)c(O)c(O)cc3c12	70.3 µM	> 100 µM	> 100 µM	> 100 µM	> 100 µM	> 100 µM	83.7 µM	> 100 µM	> 100 µM			
Cc1ccc2oc(=O)c3c4cc(O)c(O)c(C)c4oc3c2c1	7.96 µM	78.2 µM	> 100 µM	48.8 µM	> 100 µM	> 100 µM	5.35 µM	89.9 µM	9.82 µM			5
COc1cccc(O)c1O [3-METHOXYCATECHOL]	27.6 µM	60.7 µM	93.8 µM	51.6 µM	97 µM	> 100 µM	23.6 µM		50.3 µM			
O=c1oc2ccc(Cl)cc2c2oc3cc(O)c(O)cc3c12	47.5 µM	89.8 µM	> 100 µM	53.4 µM	> 100 µM	> 100 µM	36.3 µM	> 100 µM	68.6 µM			
O=c1cc(O)c2ccccc2o1 [4-HYDROXYCOUMARINS]	95.3 µM	> 100 µM	> 100 µM	> 100 µM	> 100 µM	> 100 µM	83.6 µM		> 100 µM			
Cc1cc2oc(=O)c3c4cc(O)c(O)cc4oc3c2cc1C	46 µM	86.3 µM	> 100 µM	53.3 µM	> 100 µM	> 100 µM	38.3 µM	> 100 µM	80.1 µM			
Cc1cc2oc(=O)cc(O)c2cc1C	82.3 µM	> 100 µM	> 100 µM	> 100 µM	> 100 µM	> 100 µM	80.5 µM	> 100 µM	> 100 µM			
O=c1oc2ccccc2c2oc3cc(O)c(O)cc3c12	39.4 µM	77.3 µM	> 100 µM	28.7 µM	88.4 µM	> 100 µM	33.3 µM	90.6 µM	61.9 µM			
Cc1cc2oc(=O)c3c4cc(O)c(O)c(F)c4oc3c2cc1C	77.7 µM	> 100 µM	> 100 µM	> 100 µM	> 100 µM	> 100 µM	91.8 µM	> 100 µM	> 100 µM			
